In the data set the test system is sugar cane varieties SP803280 and RB835486. As to the kind of experiment: Glasshouse safening test: visual phytotoxicity of pre-emergent herbicides on sugar cane grown from safener-soaked single-node stem sections. It is filed as in vivo. The procedure:
In the following examples, two commercial and contemporary Brazilian sugar cane varieties were used in the experiential testing, SP803280 and RB835486. The sugar cane propagation material was prepared using single-node stem sections approximately 8 cm in length. The stem sections were treated by soaking for about 10 seconds in a solution containing Formula A=1-[4-(N-2-methoxybenzoylsulfamoyl)phenyl]-3-methylurea (15 ml of formulated product in 500 ml water; the formulated product contained 100 grams of Formula A per liter of formulated product). Four stem segments (replicates) were planted in and covered with 1 cm of the regular live loam soil used in glasshouse screening using standard planting troughs, putting each variety in a separate trough. Seeds of one of two appropriate weeds, Euphorbia heterophylla or Brachiaria decumbens were also planted in each trough in a clump to give a measure of relative weeds control alongside crop phytotoxicity. Plants were assessed for percentage visual phytotoxicity at 7 day intervals after application (DAA) up to 35 DAA. Three herbicides, all having different modes-of-action were applied the day after planting as pre-emergent herbicide. The herbicides applied were: clomazone (Gamit®) having a DOXP mode-of-action (inhibition of the 1-desoxy-D-xylulose 5-phosphate), sufentrazone (Boral®) having a PPO mode-of-action (inhibition of protoporphyrinogen oxidase), and bicyclopyrone having an HPPD mode-of-action (inhibition of the enzyme 4-hydoxyphenylpyruvate dioxygenase). Application of each herbicide was applied at 600, 1200, 1600, and 2000 grams per hectare equivalents. Results: Shown in FIGS. 1-12 (DAA—Herbicide—Sugar Cane Variety)

SMILES strings stand for the structures.

As for `CNC(=O)Nc1ccc(S(=O)(=O)NC(=O)c2ccccc2OC)cc1` [Formula A, 1-[4-(N-2-methoxybenzoylsulfamoyl)phenyl]-3-methylurea], the safening of sulfentrazone entry (both varieties of sugar cane, stem sections soaked in Formula A) is recorded as “very effectively”. Moreover, the “phytotoxicity level with sulfentrazone after Formula A treatment” value (percentage visual phytotoxicity, reduced from 80%, in certain instances) is “zero”. For the setting “stem sections soaked in Formula A, bicyclopyrone applied pre-emergent”, the safening of bicyclopyrone entry is listed as “strong safening”. Also, the safening of clomazone entry (stem sections soaked in Formula A, clomazone applied pre-emergent) is “strong safening”. For the setting “with all three herbicides (clomazone, sulfentrazone, bicyclopyrone), applied pre-emergent at 600-2000 g/ha, FIGS. 1-12, 28 and 35 DAA”, the “safening effect as sugar cane propagation material applied safener” value is “clear safening effect”.

Turning to `Cc1nn(-c2cc(NS(C)(=O)=O)c(Cl)cc2Cl)c(=O)n1C(F)F` [sulfentrazone, reference compound], the “phytotoxicity level of sulfentrazone without Formula A safening” value (sugar cane, in vivo) turned out to be 80%.

Values taken from patent publication US20150305328A1, “METHODS OF SAFENING SUGAR CANE PLANTS WITH N-ACYLSULFAMOYLPHENYLUREAS” (SYNGENTA PARTICIPATIONS AG, priority 2012, published 2015).
